The test system of data set [1] is MIA PaCa-2 cells. The experiment in a line: Clonogenic assay, MIA PaCa-2. In kind it is cell-based, human. The protocol: (§1) Compound effect on cell colony formation and growth was established by clonogenic assay, as previously published. […] Cells were incubated in a humidified atmosphere containing 5% CO2 at 37 °C and grown for 8 days. After incubation, the cells were rinsed with PBS and fixed with 10% formaldehyde, methanol-free (ThermoFisher Scientific, Waltham, MA, USA) solution for 20 min. Then the cells were rinsed with PBS two more times, and cell colonies were stained with 0.1% aqueous crystal violet solution (Sigma-Aldrich Co.) for 20 min, followed by rinses with sterile deionized water to remove the excess dye. Photos of colonies were taken using the G:BOX gel documentation system (Syngene International Ltd., Bengaluru, India) and Genesys software (Syngene International Ltd.). The number of colonies and their area were calculated using GeneTools colony and cell counting software (Syngene International Ltd.) according to the manufacturer’s instructions. Cell colony area and number in control groups were normalized to 100%. The percentage of drug-treated colony area and number were compared to the control.

The subject of data set [2] is MIA PaCa-2 cells. The data set can be described thus: 'Wound healing' migration assay, MIA PaCa-2. The data set is classed as cell-based, human. The note with it: for inhibition of migration, hypoxia compared with normoxia: MIA PaCa-2. The protocol: (§2) Cell migration was tested by the ‘wound’ healing assay, as described elsewhere. Briefly, MIA PaCa-2 and PANC-1 cells were seeded into 24-well plates (Corning). MIA PaCa-2 at a density of 80,000 cells/well and PANC-1 at a density of 60,000 cells/well in 500 μL of medium and incubated in a humidified atmosphere containing 5% CO2 at 37 °C for 1 day. Then the monolayers were scratched with a sterile 100 μL pipette plastic tip in the centre of the well. The old cell medium is aspirated, the wells are rinsed with 400 μL phosphate-buffered saline (PBS, Gibco). […] Photos of ‘wounds’ were taken every 24 h for 3 days and the compound effect was evaluated by measuring the size of the “wound” area. Images were analysed by TScratch software (CSE Lab, Zurich, Switzerland).

The subject of data set [3] is PANC-1 cells. The experiment in a line: 'Wound healing' migration assay, PANC-1. The data set is classed as cell-based, human. The conditions noted are these: PANC-1. Here is the method: as §2
In data set [4] the test system is MIA PaCa-2 and PANC-1 cells. The experiment in a line: MTT cell viability, both pancreatic cancer cell lines. In kind it is cell-based, human. The note with it: for reduction of viability compared to sunitinib / reduction of cell viability: 1 µM; for reduction of viability compared to sunitinib: 72 h, both cancer cell lines; for reduction of cell viability: 72 h of incubation, at least one cell line; for activity on cell viability, comparison between cell lines: EC50 comparison MIA PaCa-2 vs PANC-1. Here is the method: Cell viability was tested using MTT (3-(4,5-dimethylthiazol-2-yl)-2,5-diphenyltetrazolium bromide; Sigma-Aldrich Co.) assay, as described previously Briefly, MIA PaCa-2 and PANC-1 cells were seeded in 96-well plates (Corning, NY, USA) in a volume of 100 μL (4000 cells/well). After 24 h incubation, the cells were treated with sunitinib and its derivatives. Only the medium without cells was used as a positive control, and the medium with 0.5% DMSO (Sigma-Aldrich Co.) served as a negative control. After 72 h the cells were incubated with the 0.5 mg/mL of MTT solution for the next 4 h. The coloured formazan product was dissolved in 100 μL DMSO. The absorbance was measured spectrophotometrically at wavelengths 570 and 630 nm. […] When determining the EC50 values of the compounds under hypoxic conditions, the growth medium was supplemented with 100 µM of CoCl2 solution (97%, Alfa Aesar, MA, USA).

The test system of the next data set is human fibroblasts. The data set can be described thus: MTT cell viability, human fibroblasts (selectivity). In kind it is cell-based. The note with it: human fibroblasts.
For data set [5], the system named is PANC-1 cells. The experiment in a line: Clonogenic assay, PANC-1. The data set is classed as cell-based, human. The note with it: 90% of EC50, normoxia. The protocol:
as §1

`COc1ccc(C2CC(c3cccs3)=NN2C2=NC(=O)/C(=C3/C(=O)Nc4ccc(I)cc43)S2)cc1` (stereo not drawn) [EMAC4017]: in the data set on MIA PaCa-2 cells [1], the “MIA PaCa-2 cell colony growth, hypoxia compared with normoxia” value was “stronger effect on the MIA PaCa-2 cell colony growth under hypoxia than normoxia”. Moreover, the “MIA PaCa-2 cell colony formation” value in the data set with MIA PaCa-2 cells [1] (hypoxia) is listed as “significantly reduced the MIA PaCa-2 cell colony formation”. Moreover, the “MIA PaCa-2 colony number compared to sunitinib” value in the data set on MIA PaCa-2 cells [1] (lower concentration (10% of EC50), hypoxia) is reported as “stronger than sunitinib”. Besides, the “inhibition of migration, hypoxia compared with normoxia” value (“inhibition … compared with normoxia” for short) in the data set on MIA PaCa-2 cells [2] is reported as “less than under normoxia”. For the same compound, the “inhibition … compared with normoxia” value with PANC-1 cells [3] was “stronger under hypoxia than normoxia”. Further, in data set [4], the “reduction of viability compared to sunitinib” value (from here on “reduction of viability”) was “statistically significantly stronger reduced” and the “reduction of cell viability” value is reported as 90%.
Turning to `COc1ccc(C2CC(c3ccc4ccccc4c3)=NN2C2=NC(=O)/C(=C3/C(=O)Nc4ccc(C(F)(F)F)cc43)S2)cc1` (stereo not drawn) [EMAC4009], the “effect on viability of non-cancerous cells (human fibroblasts)” value with human fibroblasts was “significantly reduce the viability of non-cancerous cells”. In data set [4], the “reduction of viability” value was “statistically significantly stronger reduced” and the “reduction of cell viability” value is on record as 90%.
On to `COc1ccc(C2CC(c3ccc4ccccc4c3)=NN2C2=NC(=O)/C(=C3/C(=O)Nc4ccc(OC)cc43)S2)cc1` (stereo not drawn) [EMAC4007], for which the “effect on viability of non-cancerous cells (human fibroblasts)” value with human fibroblasts was “significantly reduce the viability of non-cancerous cells”. Moreover, in data set [4], the “reduction of viability” value was “statistically significantly stronger reduced” and the “reduction of cell viability” value was 90%.
As to `COc1ccc(C2CC(c3ccc4ccccc4c3)=NN2C2=NC(=O)/C(=C3/C(=O)Nc4ccc(C)cc43)S2)cc1` (stereo not drawn) [EMAC4008], the “MIA PaCa-2 cell colony growth, hypoxia compared with normoxia” value in the data set on MIA PaCa-2 cells [1] was “stronger effect on the MIA PaCa-2 cell colony growth under hypoxia than normoxia”. Besides, the “inhibition … compared with normoxia” value in the data set on PANC-1 cells [3] is “stronger under hypoxia than normoxia”. In data set [4], the “reduction of viability” value is “statistically significantly stronger reduced”; the “reduction of cell viability” value is on record as 90%; the “activity on cell viability, comparison between cell lines” value was “more active in the PANC-1 cell line”. For the same compound, in data set [4] (EC50 comparison), the “activity on cell viability, hypoxia compared with normoxia” value is given as “more active against both cell lines under hypoxia conditions”.
As to `COc1ccc(C2CC(c3ccc4ccccc4c3)=NN2C2=NC(=O)/C(=C3/C(=O)Nc4ccc(I)cc43)S2)cc1` (stereo not drawn) [EMAC4006], the “MIA PaCa-2 cell colony formation” value in the data set on MIA PaCa-2 cells [1] (90% of EC50, normoxia) is given as “statistically significantly inhibited”. In the data set with MIA PaCa-2 cells [2], the “inhibition … compared with normoxia” value was “less than under normoxia”. The cell migration entry in the data set on MIA PaCa-2 cells [2] (normoxia, higher concentrations (90% of EC50)) is given as “inhibited cell migration”. Besides, the “PANC-1 cell colony formation (number) compared to the control” value with PANC-1 cells [5] was “inhibited the colony formation of PANC-1 cells”. Further, the “inhibition … compared with normoxia” value with PANC-1 cells [3] is given as “stronger under hypoxia than normoxia”. Further, in data set [4], the “reduction of viability” value was “statistically significantly stronger reduced”; the “reduction of cell viability” value is 90%; the “activity on cell viability, comparison between cell lines” value was “inhibited more efficiently the cell viability of the MIA PaCa-2 cell line”.
